How the values were obtained:
Type in all cases: biochemical
[1] = target: T1, USP28 (His-tagged USP28-FL-mammalian) (Homo sapiens, UniProt Q96RU2); experiment: Ubiquitin-Rhodamine 110 Assay for USP28 Activity, Example A-1(a); conditions: Ubiquitin-Rhodamine 110 biochemical assay, read-out: USP28 A-1(a) IC50 range
T1 construct: Expression of USP28 (1-1077)-TEV-6*His (pTT5 vector) was carried out in Expi293f cells; made in house; host or cells: Expi293F cells (pTT5 vector)
T1 sequence (Q96RU2 1-1077): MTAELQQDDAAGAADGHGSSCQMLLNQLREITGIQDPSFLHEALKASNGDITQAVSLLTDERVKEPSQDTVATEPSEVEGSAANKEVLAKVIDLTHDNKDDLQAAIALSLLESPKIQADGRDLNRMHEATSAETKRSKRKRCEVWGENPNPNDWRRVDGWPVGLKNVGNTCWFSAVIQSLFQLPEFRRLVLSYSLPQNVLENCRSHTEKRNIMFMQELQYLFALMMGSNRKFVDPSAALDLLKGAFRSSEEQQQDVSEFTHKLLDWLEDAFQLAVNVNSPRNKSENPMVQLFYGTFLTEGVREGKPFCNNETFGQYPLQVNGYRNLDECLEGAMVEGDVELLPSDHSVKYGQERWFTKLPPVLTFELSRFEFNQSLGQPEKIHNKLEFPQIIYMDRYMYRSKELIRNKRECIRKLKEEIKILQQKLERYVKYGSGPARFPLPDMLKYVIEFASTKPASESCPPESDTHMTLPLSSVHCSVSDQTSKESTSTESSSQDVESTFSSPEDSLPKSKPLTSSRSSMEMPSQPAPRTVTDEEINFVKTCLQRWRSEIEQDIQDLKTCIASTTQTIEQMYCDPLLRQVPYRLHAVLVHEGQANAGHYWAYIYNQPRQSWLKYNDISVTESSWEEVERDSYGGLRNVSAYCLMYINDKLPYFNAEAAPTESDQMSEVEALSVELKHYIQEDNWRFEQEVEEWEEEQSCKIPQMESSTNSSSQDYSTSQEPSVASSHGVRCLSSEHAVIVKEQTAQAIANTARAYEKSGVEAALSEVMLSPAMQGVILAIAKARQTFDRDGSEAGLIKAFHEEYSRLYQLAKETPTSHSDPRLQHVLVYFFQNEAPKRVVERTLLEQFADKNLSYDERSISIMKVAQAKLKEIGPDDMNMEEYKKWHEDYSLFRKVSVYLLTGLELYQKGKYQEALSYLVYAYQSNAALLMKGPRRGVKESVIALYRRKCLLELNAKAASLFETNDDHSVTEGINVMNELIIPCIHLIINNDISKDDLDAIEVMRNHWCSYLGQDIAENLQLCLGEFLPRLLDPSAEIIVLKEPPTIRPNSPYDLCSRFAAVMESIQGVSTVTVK
Method in brief: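 IC50s were fitted with a 4-parameter logistic to percent inhibition relative to no-enzyme and DMSO controls, using Rhodamine 110 fluorescence (485/535 nm) released from 25 nM Ub-Rh110. The enzyme was Expi293F-expressed USP28-FL-His at […], preincubated 30 min with compound (10-point, 25 μM top) in Tris pH 8.0 buffer containing BGG and Triton X-100. Substrate turnover ran 45 min at room temperature and was stopped with 10 mM citric acid.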

[2] = Ubiquitin-Rhodamine 110 Assay for USP25 Activity, Example A-3; conditions: Ubiquitin-Rhodamine 110 biochemical assay, Example A-1(b); read-out: USP28 A-1(b) IC50 range
Method in brief: (§1)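 USP25-His6 ([…] final as stated) preincubated 30 min with compound (10-point, 25 μM to 1.3 nM), then Ub-Rh110 at 25 nM (<<Km) added in pH 8.0 Tris buffer with BME, BGG and Triton X-100. Reaction stopped after 45 min at room temperature with 10 mM citric acid; fluorescence read at 485/535 nm.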

[3] = target: T2, USP28 (USP28-5(1-1077)-TEV-6*His; LifeSensors) (Homo sapiens, UniProt Q96RU2); experiment: Ubiquitin-Rhodamine 110 Assay for USP28 Activity, Example A-1(b)
T2 construct: construct USP28 (USP28-5(1-1077)-TEV-6*His; LifeSensors); TEV cleavage site (C); 6xHis (C); purchased LifeSensors
T2 sequence (Q96RU2 1-1077): T1 sequence (Q96RU2 1-1077)
Procedure: Example A-1(b): Biochemical Assay: Ubiquitin-Rhodamine 110 Assay for USP28 Activity
Each assay was performed in a final volume of 20 μL in assay buffer containing 20 mM Tris-HCl (pH 8.0, (1M Tris-HCl, pH 8.0 solution; Corning 46-031-CM)), 2 mM CaCl2 (1M Calcium Chloride solution; Sigma #21114) 2 mM BME (2-Mercaptoethanol; Sigma 63689-25ML-F), 0.01% Prionex (0.22 μM filtered, Sigma #G-0411), and 0.01% Triton X-100. Stock compound solutions were stored at −20° C. as 10 mM in DMSO. Up to 1 month prior to the assay, 2 mM test compounds were pre-dispensed into assay plates (Black, low volume; Corning #3820) and frozen at −20° C. Prestamped assay plates were allowed to come to room temperature on the day of the assay. For the screen, 100 nL of 2 mM was pre-dispensed for a final screening concentration of 10 μM (DMSO(fc)=0.5%). […] Plates were incubated stacked for 90 minutes at room temperature before fluorescence was read on the Envision (Excitation at 485 nm and Emission at 535 nm; Perkin Elmer) or on the PheraSTAR (Excitation at 485 nm and Emission at 535 nm; BMG Labtech).
For follow-up studies, each assay was performed in a final volume of 15 μL in assay buffer containing 20 mM Tris-HCl (pH 8.0, (1M Tris-HCl, pH 8.0 solution; Corning 46-031-CM)), 3 mM BME (2-Mercaptoethanol; Sigma 63689-25ML-F), 0.03% BGG (0.22 μM filtered, Sigma, G7516-25G), and 0.01% Triton X-100 (Sigma, T9284-10L). Nanoliter quantities of either an 8-point or 10-point, 3-fold serial dilution in DMSO was pre-dispensed into assay plates (Perkin Elmer, ProxiPlate-384 F Plus, #) for a final test concentration of either 25 μM to 11 nM or 25 μM to 1.3 nM, respectively. Enzyme USP28, construct USP28 (USP28-5(1-1077)-TEV-6*His; LifeSensors) concentration and incubation times were optimized for the maximal signal-to-background while maintaining initial velocity conditions at a fixed substrate concentration. The final concentration of the enzyme in the assay was […]. Final substrate (Ub-Rh110; Ubiquitin-Rhodamine 110, R&D Systems #U-555) concentration was 25 nM with [Ub-Rh110]<<Km. 5 μL of 2× enzyme was added to assay plates (pre-stamped with compound) preincubated with USP28 for 30 minutes and then 5 μL of 2× Ub-Rh110 was added to assay plates. Plates were incubated stacked for 20 minutes at room temperature before 5 μL of stop solution was added (final concentration of 10 mM citric acid (Sigma, 251275-500G)). Fluorescence was read on the Envision (Excitation at 485 nm and Emission at 535 nm; Perkin Elmer) or on the PheraSTAR (Excitation at 485 nm and Emission at 535 nm; BMG Labtech).
For assay formats Example A-1(a), A-1(b), and A-2, data were reported as percent inhibition compared with control wells based on the following equation: % inh=1−((FLU−AveLow)/(AveHigh−AveLow)) where FLU=measured Fluorescence, AveLow=average Fluorescence of no enzyme control (n=16), and AveHighh=average Fluorescence of DMSO control (n=16). IC50 values were determined by curve fitting of the standard 4 parameter logistic fitting algorithm included in the Activity Base software package: IDBS XE Designer Model 205. Data is fitted using the Levenburg Marquardt algorithm.

[4] = target: T3, USP25 (USP25-His6, Boston Biochem E-546) (Homo sapiens, UniProt Q9UHP3); experiment: Ubiquitin-Rhodamine 110 Assay for USP25 Activity, Example A-3; conditions: Ubiquitin-Rhodamine 110 assay, Example A-3; IC50 ranges; read-out: USP25 A-3 IC50
T3 construct: His6 (C); purchased Boston Biochem E-546
T3 sequence (Q9UHP3 1-1055): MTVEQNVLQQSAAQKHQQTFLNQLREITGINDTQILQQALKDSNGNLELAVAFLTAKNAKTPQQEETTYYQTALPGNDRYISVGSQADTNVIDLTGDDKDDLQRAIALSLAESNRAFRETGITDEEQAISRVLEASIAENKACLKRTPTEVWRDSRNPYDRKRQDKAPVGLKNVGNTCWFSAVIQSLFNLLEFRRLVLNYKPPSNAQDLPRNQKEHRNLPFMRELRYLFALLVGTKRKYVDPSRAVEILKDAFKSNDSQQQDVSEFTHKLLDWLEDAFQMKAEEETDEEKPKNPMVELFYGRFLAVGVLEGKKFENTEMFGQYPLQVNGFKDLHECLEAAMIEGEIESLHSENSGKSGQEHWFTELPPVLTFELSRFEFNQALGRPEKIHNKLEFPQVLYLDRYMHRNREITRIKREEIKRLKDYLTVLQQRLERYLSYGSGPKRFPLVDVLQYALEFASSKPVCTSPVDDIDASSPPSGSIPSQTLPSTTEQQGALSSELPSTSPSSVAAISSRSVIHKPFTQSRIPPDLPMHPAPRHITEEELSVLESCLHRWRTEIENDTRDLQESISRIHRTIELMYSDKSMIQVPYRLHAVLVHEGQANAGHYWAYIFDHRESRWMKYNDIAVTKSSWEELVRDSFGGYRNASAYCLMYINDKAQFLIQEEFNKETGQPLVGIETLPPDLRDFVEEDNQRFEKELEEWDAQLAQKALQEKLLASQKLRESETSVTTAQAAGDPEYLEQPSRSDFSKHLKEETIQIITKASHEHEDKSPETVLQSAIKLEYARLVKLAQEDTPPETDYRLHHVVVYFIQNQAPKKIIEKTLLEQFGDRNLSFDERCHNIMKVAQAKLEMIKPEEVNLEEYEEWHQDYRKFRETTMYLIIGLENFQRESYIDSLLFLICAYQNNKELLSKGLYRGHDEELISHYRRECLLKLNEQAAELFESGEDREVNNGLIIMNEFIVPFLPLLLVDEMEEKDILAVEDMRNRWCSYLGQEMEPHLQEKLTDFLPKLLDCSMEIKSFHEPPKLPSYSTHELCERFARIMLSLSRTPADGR
Method in brief: as §1

Compound	IC50 [1] [nM]	IC50 [2] [nM]	USP28 A-1(b) IC50 range [3]	IC50 [4] [nM]
Cc1ccc2c(N)c(C(=O)N[C@H]3CCc4nc(N5CC[C@@H](N)[C@@H]5C(F)F)ccc4C3)sc2n1 [Example 478, 3-amino-N-[(6S)-2-[(2R,3R)-3-amino-2-(difluoromethyl)pyrrolidin-1-yl]-5,6,7,8-tetrahydroquinolin-6-yl]-6-methylthieno[2,3-b]pyridine-2-carboxamide]	50 to 200	> 2000	–	–
Cc1ccc2c(N)c(C(=O)N[C@H]3COc4cc(N5C[C@@H]6CNC[C@H]6C5)ccc4C3)sc2n1 [Example 43, 3-amino-N-((R)-7-((3aR,6aR)-hexahydropyrrolo[3,4-c]pyrrol-2(1H)-yi)chroman-3-yl)-6-methylthieno[2,3-b]pyridine-2-carboxamide]	–	–	+ (“+”L>2 μM)	–
CCn1ccc2cc(C(=O)N[C@@H]3CCc4cc(N5CC6CCC(C5)N6)ccc4C3)nnc21 (single isomer, unassigned) [Example 11-23]	–	–	+ (“+”L>2 μM)	–
CCN[C@@H]1CN(c2ccc3c(n2)CC[C@H](NC(=O)c2sc4nc(C)ccc4c2N)C3)C[C@H]1COC [Example 477, 3-amino-N-[(6S)-2-[(3S,4R)-3-(ethylamino)-4-(methoxymethyl)pyrrolidin-1-yl]-5,6,7,8-tetrahydroquinolin-6-yl]-6-methylthieno[2,3-b]pyridine-2-carboxamide]	50 to 200	> 2000	–	–
CCn1ccc2cc(C(=O)N[C@H]3CCc4cc(N5CC6CCC(C5)N6)ccc4C3)nnc21 (single isomer, unassigned) [Example 11-24]	–	–	+ (“+”L>2 μM)	–
Cc1nc2sc(C(=O)N[C@H]3CCc4nc(N5C[C@@H](CF)[C@H](N)C5)ccc4C3)c(N)c2cc1F [Example 507, 3-amino-N-[(6S)-2-[(3S,4R)-3-amino-4-(fluoromethyl)pyrrolidin-1-yl]-5,6,7,8-tetrahydroquinolin-6-yl]-5-fluoro-6-methylthieno[2,3-b]pyridine-2-carboxamide]	50 to 200	200 to 2000	–	–
Cc1ccc2c(N)c(C(=O)N[C@H]3CCc4nc(N5CC[C@H](N)[C@H]5C(F)F)ccc4C3)sc2n1 [Example 479, 3-amino-N-[(6S)-2-[(2S,3S)-3-amino-2-(difluoromethyl)pyrrolidin-1-yl]-5,6,7,8-tetrahydroquinolin-6-yl]-6-methylthieno[2,3-b]pyridine-2-carboxamide]	1 to 50	50 to 200	–	–
CCN[C@H]1CN(c2ccc3c(n2)CC[C@H](NC(=O)c2sc4nc(C)ccc4c2N)C3)C[C@@H]1COC [Example 476, 3-amino-N-[(6S)-2-[(3R,4S)-3-(ethylamino)-4-(methoxymethyl)pyrrolidin-1-yl]-5,6,7,8-tetrahydroquinolin-6-yl]-6-methylthieno[2,3-b]pyridine-2-carboxamide]	50 to 200	> 2000	–	–
Cc1cc(C)c2c(N)c(C(=O)N[C@H]3COc4cc(N5CC6CCC(C5)N6)c(C#N)c(F)c4C3)sc2n1 [Example 241, 3-amino-N-[(3R)-6-cyano-7-{3,8-diazabicyclo[3.2.1]octan-3-yl}-5-fluoro-3,4-dihydro-2H-1-benzopyran-3-yl]-4,6-dimethylthieno[2,3-b]pyridine-2-carboxamide]	–	–	–	50 to 200

Reference: patent US12162888B2, “Carboxamides as ubiquitin-specific protease inhibitors” (Valo Early Discovery, Inc., priority 2018, dated 2024)
